Results taken from publication PMC6835155, “Lessons from LIMK1 enzymology and their impact on inhibitor design” (Biochemical Journal, 2019).
Where a name gives a salt, the structure may show the parent alone. Read-outs that look alike come from different tables or passages of the source.

Tests used:
LIMK1KD = molecular target: T1, LIMK1KD (Homo sapiens, UniProt P53667); assay: Differential (dynamic) scanning fluorimetry (DSF) assay, LIMK1KD; assay type: binding; conditions: for ΔTm at 10 µM: read-out: TM Shift LIMK1 (K)
T1 construct: His6 (N, cleaved yes); made in house; host or cells: baculovirus; Sf9 for virus, TriEx insect cells for expression
T1 sequence (P53667 330-637): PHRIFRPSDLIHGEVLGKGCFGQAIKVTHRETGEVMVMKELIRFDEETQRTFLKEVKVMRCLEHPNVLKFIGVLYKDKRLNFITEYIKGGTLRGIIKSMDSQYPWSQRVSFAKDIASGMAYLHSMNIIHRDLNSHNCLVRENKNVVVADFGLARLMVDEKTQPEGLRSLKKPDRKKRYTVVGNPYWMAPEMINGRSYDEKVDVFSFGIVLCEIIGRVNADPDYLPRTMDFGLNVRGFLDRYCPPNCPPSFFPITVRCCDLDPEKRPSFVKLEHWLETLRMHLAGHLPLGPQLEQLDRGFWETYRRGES

LIMK2KD = molecular target: T2, LIMK2KD (Homo sapiens, UniProt P53671); assay: Differential (dynamic) scanning fluorimetry (DSF) assay, LIMK2KD; assay type: binding
T2 construct: The cDNA coding for LIMK2 residues 330 to 632 was PCR amplified; His6 (N, cleaved yes); made in house; host or cells: baculovirus; Sf9 for virus, TriEx insect cells for expression
T2 sequence (P53671 330-632): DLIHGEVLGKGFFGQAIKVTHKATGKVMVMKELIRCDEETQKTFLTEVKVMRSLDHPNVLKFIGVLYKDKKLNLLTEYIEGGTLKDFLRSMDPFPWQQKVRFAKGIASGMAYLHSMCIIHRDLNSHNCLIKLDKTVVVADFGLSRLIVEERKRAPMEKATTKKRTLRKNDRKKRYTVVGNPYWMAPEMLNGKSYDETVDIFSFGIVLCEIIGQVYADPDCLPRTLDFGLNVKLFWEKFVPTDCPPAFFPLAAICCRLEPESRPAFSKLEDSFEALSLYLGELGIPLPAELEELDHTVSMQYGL

[1] = 2 µM LIMK1KD, compound 10 µM, single shot
[2] = LIMK2KD, compound 10 µM, single shot, read-out: TM Shift LIMK2 (K)
[3] = LIMK2KD, compound 10 µM, single shot
[4] = LIMK2KD, compound 10 µM, single shot, 10 µM

Structure (SMILES) | ΔTm at 10 µM (LIMK1KD; [1]) [°C] | ΔTm at 10 µM (LIMK2KD; [2]) [°C] | TM Shift LIMK1 (K) (LIMK1KD; [1]) | also measured
Oc1ccc2ccccc2c1SSc1c(O)ccc2ccccc12 [IPA-3] |  |  | 0.0 | TM Shift LIMK2 (K) (LIMK2KD; [3]): 1.2 K
C[C@H](Nc1ncnc2nc[nH]c12)c1cc2cccc(Cl)c2c(=O)n1-c1ccccc1 [IPI-145 (INK1197)] | -1.5 | -0.6 |  | 
C#Cc1cccc(Nc2ncnc3cc4c(cc23)OCCOCCOCCO4)c1 [Icotinib] | -0.2 | -0.6 |  | 
CC[C@H](Nc1ncnc2[nH]cnc12)c1nc2cccc(F)c2c(=O)n1-c1ccccc1 [Idelalisib] |  |  | 0.5 | TM Shift LIMK1 (K) (LIMK1KD; 2 µM LIMK1KD, compound 10 µM, single shot, listed as CAL-101 (Idelalisib, GS-1101)): -0.1 K; TM Shift LIMK2 (K) (LIMK2KD; [4]): -0.8 K; TM Shift LIMK2 (K) (LIMK2KD; LIMK2KD, compound 10 µM, single shot, listed as CAL-101 (Idelalisib, GS-1101), 10 µM): 1.8 K
Cc1ccc(NC(=O)c2ccc(CN3CCN(C)CC3)cc2)cc1Nc1nccc(-c2cccnc2)n1 [Imatinib (STI571), Imatinib] |  | 1 | 0.8 | 
Cc1ccc(NC(=O)c2ccc(CN3CCN(C)CC3)cc2)cc1Nc1nccc(-c2cccnc2)n1 [Imatinib Mesylate (STI571), Imatinib Mesylate] |  |  | 0.0 | TM Shift LIMK2 (K) (LIMK2KD; [4]): 0.8 K
O=C1Nc2ccccc2/C1=C1/Nc2ccccc2C1=O [Indirubin] | 1.4 | 2.6 |  | 
Nc1nc(Nc2ccc(S(N)(=O)=O)cc2)nn1C(=O)c1c(F)cccc1F [JNJ-7706621] | 8.2 | 5.8 |  | 
Cn1cc(-c2ccc3nnc(C(F)(F)c4ccc5ncccc5c4)n3n2)cn1 [JNJ-38877605] |  |  | -0.1 | TM Shift LIMK2 (K) (LIMK2KD; [3]): -0.2 K
CCCNC(=O)Nc1ccc(Oc2ncnc3cc(OC)c(OC)cc23)cc1Cl [KRN 633] | 1.9 | 1.4 |  | 
O=c1cc(-c2cccc3c2Sc2ccccc2S3)oc(N2CCOCC2)c1 [KU-55933 (ATM Kinase Inhibitor)] | -0.2 | -0.1 |  | 
C[C@@H]1CN(CC(=O)Nc2ccc3c(c2)Cc2cccc(-c4cc(=O)cc(N5CCOCC5)o4)c2S3)C[C@H](C)O1 [KU-60019] | 0.5 | 0.6 |  | 
O=C(c1ccc(/C=C/c2n[nH]c3ccccc23)cc1)N1CCNCC1 [KW-2449] | 1.7 | 0.8 |  | 
O=C(Cc1ccc(-c2ccc(OCCN3CCOCC3)cc2)cn1)NCc1ccccc1 [KX2-391] |  |  | 1.7 | TM Shift LIMK2 (K) (LIMK2KD; [3]): -0.3 K
COc1cc2nccc(Oc3ccc(NC(=O)Nc4ccc(F)cc4F)c(F)c3)c2cc1OC [Ki8751] |  |  | -0.1 | TM Shift LIMK2 (K) (LIMK2KD; [3]): 1.5 K
Cc1cc(Nc2ncc(Cl)c(Nc3ccccc3S(=O)(=O)C(C)C)n2)c(OC(C)C)cc1C1CCNCC1 [LDK378] | 0.2 | -0.3 |  | 
O=c1cc(N2CCOCC2)oc2c(-c3ccccc3)cccc12 [LY294002] | 0 | 0.4 |  | 
CC(C)(C)Cn1c(N)nc2ccc(-c3[nH]c(C(C)(C)C)nc3-c3ccc(F)cc3)nc21 [LY2228820] |  |  | 2.1 | TM Shift LIMK2 (K) (LIMK2KD; [4]): 4.4 K

Structure (SMILES) | ΔTm at 10 µM (LIMK1KD; [1]) [°C] | ΔTm at 10 µM (LIMK2KD; [2]) [°C] | TM Shift LIMK1 (K) (LIMK1KD; [1]) | also measured
CCN1CCN(Cc2ccc(Nc3ncc(F)c(-c4cc(F)c5nc(C)n(C(C)C)c5c4)n3)nc2)CC1 [LY2835219] | 0.9 | 0.3 |  | 
C[C@@H](Oc1ccc2[nH]nc(/C=C/c3cnn(CCO)c3)c2c1)c1c(Cl)cncc1Cl [LY2874455] | 2.5 | 0.1 |  | 
CS(=O)(=O)CCNCc1ccc(-c2ccc3ncnc(Nc4ccc(OCc5cccc(F)c5)c(Cl)c4)c3c2)o1 [Lapatinib (GW-572016) Ditosylate, Lapatinib] | 0.2 | 1.8 |  | 
COc1cc2nccc(Oc3ccc(NC(=O)NC4CC4)c(Cl)c3)c2cc1C(N)=O [Lenvatinib (E7080), Lenvatinib] | 0.7 | 0.1 |  | 
C[C@]12O[C@H](C[C@]1(O)CO)n1c3ccccc3c3c4c(c5c6ccccc6n2c5c31)CNC4=O [Lestaurtinib] | 5 |  |  | ΔTm at 10 µM (LIMK2KD; read-out: TM Shift LIMK2 (K), LIMK2KD, compound 10 µM, single shot): 2 °C
Cc1ccc(F)c(NC(=O)Nc2ccc(-c3cccc4[nH]nc(N)c34)cc2)c1 [Linifanib] | 2 | 5 |  | 
Cn1cnc2c(F)c(Nc3ccc(Br)cc3F)c(C(=O)NOCCO)cc21 [MEK162 (ARRY-162, ARRY-438162)] | 0.4 | 2.1 |  | 
COCCNCc1ccc(-c2cc3nccc(Oc4ccc(NC(=S)NC(=O)Cc5ccc(F)cc5)cc4F)c3s2)nc1 [MGCD-265] | 3.6 | 1.1 |  | 
CN(C[C@@H]1COCCO1)S(=O)(=O)Nc1ccc2ccc3ncc(-c4cnn(C)c4)cc3c(=O)c2c1 [MK-2461] | 0.8 | 0.3 |  | 
Cn1cc(-c2cnn3c(N)c(Br)c([C@@H]4CCCNC4)nc23)cn1 [MK-8776 (SCH 900776)] |  |  |  | ΔTm at 10 µM (LIMK1KD): 1.8 °C; ΔTm at 10 µM (LIMK2KD; read-out: TM Shift LIMK2 (K)): 2.2 °C
O=C(O)c1ccc(Nc2ncc3c(n2)-c2ccc(Cl)cc2C(c2c(F)cccc2F)=NC3)cc1 [MLN8054] | -0.4 | 1 |  | 
Cc1ccc(NC(=O)c2ccc(CN3CCN(C)CC3)cc2)cc1Nc1nc(-c2cccnc2)cs1 [Masitinib (AB1010), Masitinib] | 0.4 | 0 |  | 
CO[C@@H]1[C@H](N(C)C(=O)c2ccccc2)C[C@H]2O[C@]1(C)n1c3ccccc3c3c4c(c5c6ccccc6n2c5c31)C(=O)NC4 [Midostaurin] | 0.1 | 0 |  | 
CC1(C)CNc2cc(NC(=O)c3cccnc3NCc3ccncc3)ccc21 [Motesanib Diphosphate (AMG-706), Motesanib Diphosphate] | 0.6 | 0.5 |  | 
FC(F)(F)c1ccc(/C=C/c2nc(COc3ccc(CCCCn4ccnn4)cc3)co2)cc1 [Mubritinib (TAK 165), Mubritinib] | 0.6 | -0.4 |  | 
CCN(CC)CCCC(C)Nc1nc(C)cc(Nc2ccc3nc(C)cc(N)c3c2)n1 (stereo not drawn) [NSC 23766] |  |  | 0.0 | TM Shift LIMK2 (K) (LIMK2KD; [3]): -2.2 K
O=c1cc(N2CCOCC2)oc2c1ccc1ccccc12 [NU7026] |  |  | -0.7 | TM Shift LIMK2 (K) (LIMK2KD; [3]): 3.0 K
O=c1cc(N2CCOCC2)oc2c(-c3cccc4c3sc3ccccc34)cccc12 [NU7441 (KU-57788)] |  |  | 0.5 | TM Shift LIMK2 (K) (LIMK2KD; [3]): -0.9 K

Further lines, with some results ahead:

ΔTm at 10 µM (LIMK1KD; [1]) [°C] | ΔTm at 10 µM (LIMK2KD; [2]) [°C] | TM Shift LIMK1 (K) (LIMK1KD; [1]) | Structure (SMILES) | also measured
1.4 | 0.3 |  | CC(C)n1nc(-c2ccc3oc(N)nc3c2)c2c(N)ncnc21 [INK 128 (MLN0128)] | 
2.4 | 0.7 |  | C=CC(=O)N1CCC[C@@H](n2nc(-c3ccc(Oc4ccccc4)cc3)c3c(N)ncnc32)C1 [Ibrutinib (PCI-32765), Ibrutinib] | 
 |  | 2.3 | CC(C)NC[C@@H](C(=O)N1CCN(c2ncnc3c2[C@H](C)C[C@H]3O)CC1)c1ccc(Cl)cc1 [Ipatasertib] | TM Shift LIMK2 (K) (LIMK2KD; [4]): 2.3 K
0.3 | 2 |  | COc1ccc(-c2ccc3c(N4CCOCC4)nc(N4C[C@@H](C)O[C@@H](C)C4)nc3n2)cc1CO [KU-0063794] | 
 |  | 0.1 | Cc1cnc(NC(=O)Nc2cc(Br)c(C)cc2OC[C@@H]2CNCCO2)cn1 [LY2603618] | TM Shift LIMK2 (K) (LIMK2KD; [4]): 0.7 K
5 |  |  | Cc1cc(Nc2cc(CN3CCOCC3)c3nc(C)c(Cc4ccc(Cl)cc4F)n3n2)n[nH]1 [LY2784544] | TM Shift LIMK2 (K) (LIMK2KD; [4]): 1.1 K
 | 0.9 | 0.8 | C[C@]1(O)C[C@@H](c2nc(-c3ccc4ccc(-c5ccccc5)nc4c3)c3c(N)nccn32)C1 [Linsitinib] | TM Shift LIMK1 (K) (LIMK1KD; 2 µM LIMK1KD, compound 10 µM, single shot, listed as OSI-906 (Linsitinib)): 0.2 K; TM Shift LIMK2 (K) (LIMK2KD; LIMK2KD, compound 10 µM, single shot, listed as OSI-906 (Linsitinib), 10 µM): 0.7 K
1.2 | 0 |  | C=CCn1c(=O)c2cnc(Nc3ccc(N4CCN(C)CC4)cc3)nc2n1-c1cccc(C(C)(C)O)n1 [MK-1775] | 
 |  | 0.4 | Cl.Cl.NC1(c2ccc(-c3nc4ccn5c(=O)[nH]nc5c4cc3-c3ccccc3)cc2)CCC1 [MK-2206 2HCl] | TM Shift LIMK2 (K) (LIMK2KD; [3]): -1.1 K
1.5 | 0.9 |  | O=C(O)[C@]1(Cc2cccc(Nc3nccs3)n2)CC[C@@H](Oc2cccc(Cl)c2F)CC1 [MK-5108 (VX-689)] | 
 |  | 1.0 | O=C(c1cccc(Cl)c1F)N1CCN(Cc2cccc(Nc3nccs3)n2)CC1 [MK-8745] | TM Shift LIMK2 (K) (LIMK2KD; [3]): -0.3 K
0.2 | 0.6 |  | CNC(=O)c1nn(C)c2c1C(C)(C)Cc1cnc(Nc3ccc(N4CCN(C)CC4)cc3)nc1-2 [Milciclib (PHA-848125), Milciclib] | 
 |  | 6.3 | N#CCNC(=O)c1ccc(-c2ccnc(Nc3ccc(N4CCOCC4)cc3)n2)cc1 [Momelotinib] | TM Shift LIMK2 (K) (LIMK2KD; [4]): 4.2 K
0.8 | -0.9 |  | Nc1nc(N)c(N=O)c(OCC2CCCCC2)n1 [NU6027] | 
 |  | 0.2 | Nc1ncnc2c1c(-c1cccc(OCc3ccccc3)c1)cn2C1CC(CN2CCCC2)C1 (stereo not drawn) [NVP-ADW742] | TM Shift LIMK2 (K) (LIMK2KD; [3]): 0.1 K
-0.2 | 0.4 |  | Nc1ncnc2c1c(-c1cccc(OCc3ccccc3)c1)cn2[C@H]1C[C@@H](CN2CCC2)C1 [NVP-AEW541] | 
